Measurements taken from patent US6517856B1, “Insecticide resistance assay” (priority 1998, dated 2003).

Assays:
[1] = tested on: H. virescens; test: Effect of Trypan Blue in diet on rate of feces production, third instars; assay type: in vivo, Heliothis virescens; settings: no Bt, confidence interval in brackets
Method: The blue diet used in the feeding disruption bioassay is an agar based insect meal containing 20 mg of Trypan Blue (Direct Blue 14; Matheson Coleman & Bell, Norwood, Ohio) per 100 ml of standard artificial diet, and containing different concentrations of CryIAc (MVP, Mycogen). Larvae feeding on this colored diet produced blue feces which were easily distinguished by observation from feces derived from other food sources. Assays were conducted in 1-ounce clear plastic cups (Solo Cup Company, Urbana, Ill.; approximately […] in diameter and ¾ inches high) fitted with white cardboard tops, which are routinely used for insect rearing in the inventors' laboratories. The clear plastic allowed for the observation of blue feces without opening the container.
The rate of feces production was examined for third instars of both the Wake (Bt susceptible) and YHD2 (Bt resistant) strains of H. virescens, to examine the effects of adding Trypan Blue to the standard artificial diet (the “Blue diet”). Wake budworms produced 30.6 ([…], 27.6-33.6) fecal pellets/hour/15 larvae on regular diet, and 25.5 (22.5-28.5) fecal pellets/hour/15 larvae on Trypan Blue diet. This difference, although small, was statistically significant as indicated by a significant diet×time interaction (F=6.05; df=1,24; P=0.0215) (PROC GLM procedure, SAS 1991). (Data not shown). […]

[2] = Octanol-water partition coefficient (Kow); assay type: physicochemical; settings: method of Leo et al. (1971), mean of 3 replicates
[3] = tested on: tobacco budworm neonates; test: Larval feeding disruption assay for spinosad resistance; assay type: in vivo, Heliothis virescens; settings: 1.6 μg active ingredient per ml diet, 24 h
Method: The Bt feeding disruption assay described above was modified to monitor spinosad resistance in tobacco budworms. Trypan Blue (Direct Blue 14, Matheson Coleman and Bell, Norwood, Ohio) was blended into artificial diet (described above) at the rate of 20 mg of dye per 100 ml diet. This diet also was formulated with 1.6 μg of spinosad active ingredient per ml diet. The spinosad was added to the diet as part of a 44.2% aqueous formulation provided to us by Dr. Clyde Sorenson (NC State University, Raleigh, N.C.). […] The blue indicator diet with spinosad was dispensed at the rate of 100 μl per well into 8-well microtitre plate strips (Nalge Nunc Int., Napersville, Ill.). The wells were sealed with strip caps (Nunc). In order to reduce condensation within the wells, caps were punctured twice with a #3 insect pin.
Hv Franklin (spinosad susceptible) and spinosad resistant (selected) neonates of the tobacco budworm were used in all assays and were added to the assay diet within 24 h of hatch. Hv Franklin has been previously shown to be representative of other field collected H. virescens strains in spinosad toxicity. Selection of our laboratory colony of tobacco budworms which were originally collected from various locations in North Carolina, with technical spinosad applied topically each generation, produced insects that were highly resistant to spinosad.
Bioassays were conducted at 27±1° C. with a 14:10 L:D cycle, and the number of blue fecal pellets produced were counted after a 24 h exposure of the neonates to the diet. Results were taken from two replicates consisting of 24 insects per replicate.

[4] = Hv spinosad selected (resistant) neonates

## Cc1cc(-c2ccc(/N=N/c3c(S(=O)(=O)O)cc4cc(S(=O)(=O)O)cc(N)c4c3O)c(C)c2)ccc1/N=N/c1c(S(=O)(=O)O)cc2cc(S(=O)(=O)O)cc(N)c2c1O [Trypan Blue]
[1]; Wake third instars
  rate of fecal pellet production on Trypan Blue diet: 25.5 (22.5-28.5) fecal pellets/hour/15 larvae
[1]; YHD2 third instars
  rate of fecal pellet production on Trypan Blue diet: 34.9 (32.5-37.3) fecal pellets per hour per 15 larvae

## CC(C)CCC[C@@H](C)[C@H]1CC[C@H]2[C@@H]3CC=C4C[C@@H](O)CC[C@]4(C)[C@H]3CC[C@]12C [cholesterol]
[2]
  Octanol-water coefficient (Kow): 0.46

## COC(=O)/C=C(\C)CC/C=C(\C)CC[C@H]1OC1(C)C [juvenile hormone III]
[2]
  Octanol-water coefficient (Kow): 165.33

## spinosad
[3]; [4]
  percentage producing 3-5 pellets: 2.3%
  percentage producing >2 fecal pellets: 100%
[3]; susceptible Hv Franklin neonates
  percentage producing 0-2 fecal pellets: 100%
